Assay results reported in patent publication US20250388592A1 (REMYND N.V., priority 2022, published 2025).

Experiments:
[1] = system: Tau-P301S transgenic mice; assay: Hippocampal long-term potentiation (CA3-CA1 fEPSP) in human Tau transgenic mice model of Alzheimer disease; assay type: in vivo, mouse; conditions: 41-60 minute post-induction interval
Excerpt: The Tau-P301S line of mice was transgenic for the 383 aa isoform of human tau with the P301S mutation (Allen et al., 2002). In these mice, a clinical mutant of the human Tau (P301S) was expressed under control of the murine Thy1 promoter (neuron-specific expression) in C57Bl/6JxCBA/ca background. The homozygous hTauP301S-Tg model used consisted of the progeny from a cross between two homozygous hTauP301S-Tg parental mice in C57Bl/6JxCBA/ca background, bred in SPF breeding conditions.
Six mice (3,5 months of age) per group were treated orally once daily for 7 days with vehicle or 0.4, 2 or 10 mg/kg cpd B061, or twice daily for 7 days with vehicle or 25 mg/kg cpd B112, formulated in labrasol/capryol (70/30% W/V). A wild type vehicle group was included as well. The mice in study were sacrificed after a minimum of 7 days of acclimatization and 7 days of dosing. LTP measurements occurred between 90 and 120 minutes after excision of the brain.
Mice were anaesthetized with isoflurane and then decapitated. Heads were immediately immersed in ice-cold freshly prepared artificial CSF (cerebrospinal fluid) (aCSF) for at least 2 min before brain extraction. Acute slices (400 μm thick) were prepared with a vibratome (VT 1000S; Leica Microsystems, Bannockburn, IL) in ice-cold gassed aCSF. Sections were incubated in aCSF at 34° C. for 20 min and then kept at room temperature for at least 1 h before recording. aCSF was composed of the following (in mM): 119 NaCl, 11 d-glucose, 1.3 MgCl2·6H2O, 1.3 NaH2PO4, 2.5 KCl, 2.5 CaCl2, 26 NaHCO3, gassed with O2/CO2 (95/5%) at least 20 min before use and throughout the experiment.
Recordings were performed in a submerged chamber continuously flowed with aCSF at 2 ml/min. Extracellular field excitatory postsynaptic potentials (fEPSPs) were recorded in the CA1 stratum radiatum using a glass micropipette filled with aCSF. fEPSPs were evoked by the electrical

M17_3TAU(P301L) cells = assay: TAU-induced cytotoxicity (LDH) in the neuroblastoma tauopathy model; assay type: cell-based; conditions: Homo sapiens, 168 h, inhibition of TAU-induced toxicity, 7 days retinoic acid differentiation, LDH readout
Method in brief: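 Stably transfected BE-M17 cells expressing human TAU-P301L, seeded in serum-free detection medium, then differentiated with 2.5 μM RA (added in equal volume) for 7 days at 37° C/5% CO2 to induce TAU aggregation. Cytotoxicity = supernatant LDH increase over total LDH; EC50 from dose-dependent inhibition curves.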

| SMILES | EC50 (M17_3TAU(P301L) cells) | also measured |
| --- | --- | --- |
| O=C(Cc1ccc(Cl)cc1)N1CC2(CN(Cc3ccc(F)cc3)C2)C1 [Cpd B061, 2-(4-chlorophenyl)-1-(6-(4-fluorobenzyl)-2,6-diazaspiro[3.3]heptan-2-yl)ethanone] | 0.00246 µM | Average fEPSP slope (% of baseline) ([1]; 0.4 mpk orally once daily for 7 days): 129.0 % of baseline; Average fEPSP slope (% of baseline) ([1]; 2 mpk orally once daily for 7 days): 152.2 % of baseline; Average fEPSP slope (% of baseline) ([1]; 10 mpk orally once daily for 7 days): 169.3 % of baseline |
| O=C(CC1CCC(F)(F)CC1)N1CC2(CN(Cc3ncccc3C(F)(F)F)C2)C1 [Cpd B112] | 0.0122 µM | Average fEPSP slope (% of baseline) ([1]; 25 mpk orally twice daily for 7 days): 144.4 % of baseline |
| CCn1cc(CN2CC3(C2)CN(C(=O)NCc2ccc(F)cc2)C3)cn1 [Cpd B410] | 3.32 µM | – |
| Cc1nc(CN2CC3(C2)CN(C(=O)C(F)(F)c2ccc(F)cc2)C3)cs1 [Cpd B411] | 3.01 µM | – |
| Cc1cccnc1CN1CC2(C1)CN(C(=O)c1cc3ccccc3o1)C2 [Cpd B412] | 2.85 µM | – |
| Cc1c(CN2CC3(C2)CN(C(=O)NCc2ccc(F)cc2)C3)cnn1C [Cpd B413] | 2.77 µM | – |
| O=C(Cc1ccccn1)N1CC2(CN(Cc3ccc(F)cc3)C2)C1 [Cpd B414] | 2.71 µM | – |
| CCc1cc(CC(=O)N2CC3(CN(Cc4ccc(F)cc4)C3)C2)ccn1 [Cpd B415] | 2.41 µM | – |
| COc1cccc(CC(=O)N2CC3(CN(Cc4ncccc4C)C3)C2)c1 [Cpd B416] | 2.22 µM | – |
| Cc1ncc(CN2CC3(C2)CN(C(=O)NCc2ccc(F)cc2)C3)s1 [Cpd B417] | 1.69 µM | – |
| Cc1nc(CN2CC3(C2)CN(C(=O)NCc2ccc(F)cc2)C3)cs1 [Cpd B418] | 1.33 µM | – |
| COc1cccc(CN2CC3(C2)CN(C(=O)Cc2ccccn2)C3)c1 [Cpd B419] | 1.26 µM | – |
| COc1cccc(CN2CC3(C2)CN(C(=O)Nc2cccc(OC)c2)C3)c1 [Cpd B420] | 1.21 µM | – |
| Cc1ccc(CN2CC3(C2)CN(C(=O)NCc2ccc(F)cc2)C3)[nH]1 [Cpd B421] | 0.981 µM | – |
| COc1cccc(CN2CC3(C2)CN(C(=O)NC2CC(F)(F)C2)C3)c1 [Cpd B422] | 0.978 µM | – |
| O=C(Cc1ccccc1O)N1CC2(CN(Cc3ccc(F)cc3)C2)C1 [Cpd B423] | 0.972 µM | – |
| Cc1nc(CN2CC3(C2)CN(C(=O)Cc2ccccc2F)C3)cs1 [Cpd B424] | 0.93 µM | – |
| COc1cccc(CC(=O)N2CC3(CN(Cc4ccc(F)cc4)C3)C2)c1 [Cpd B425] | 0.854 µM | – |
| Cc1nn(C)cc1CN1CC2(C1)CN(C(=O)NCc1ccc(F)cc1)C2 [Cpd B426] | 0.85 µM | – |
| Cc1cccnc1CN1CC2(C1)CN(C(=O)c1cc3ccccc3s1)C2 [Cpd B427] | 0.846 µM | – |

| SMILES | EC50 (M17_3TAU(P301L) cells) | also measured |
| --- | --- | --- |
| COC(=O)c1ccc(CC(=O)N2CC3(CN(Cc4ccc(F)cc4)C3)C2)cc1 [Cpd B428] | 0.778 µM | – |
| Cc1nc(CN2CC3(C2)CN(C(=O)OCc2ccc(Cl)cc2)C3)cs1 [Cpd B429] | 0.746 µM | – |
| Cc1ccccc1CC(=O)N1CC2(CN(Cc3ncccc3C)C2)C1 [Cpd B430] | 0.691 µM | – |
| COc1ncccc1CN1CC2(C1)CN(C(=O)NCc1ccc(F)cc1)C2 [Cpd B431] | 0.492 µM | – |
| O=C(NCc1ccc(F)cc1)N1CC2(CN(Cc3cccnc3F)C2)C1 [Cpd B432] | 0.482 µM | – |
| O=C(Cc1cccc(Cl)c1)N1CC2(CN(Cc3ccc(F)cc3)C2)C1 [Cpd B433] | 0.469 µM | – |
| Cc1ccccc1CC(=O)N1CC2(CN(Cc3ccccc3C)C2)C1 [Cpd B434] | 0.396 µM | – |
| Cc1cccnc1CN1CC2(C1)CN(C(=O)NCc1cccc(C(F)(F)F)c1)C2 [Cpd B435] | 0.39 µM | – |
| Cc1cccnc1CN1CC2(C1)CN(C(=O)Cc1ccccc1F)C2 [Cpd B436] | 0.389 µM | – |
| Cc1cccnc1CN1CC2(C1)CN(C(=O)CC1CCCC1)C2 [Cpd B437] | 0.354 µM | – |
| Cn1ncc(Cl)c1CN1CC2(C1)CN(C(=O)CC1CCC(F)(F)CC1)C2 [Cpd B438] | 0.317 µM | – |
| Cc1ccccc1CC(=O)N1CC2(CN(Cc3ccc(F)cc3)C2)C1 [Cpd B439] | 0.295 µM | – |
| Cc1cnc(CN2CC3(C2)CN(C(=O)NCc2ccc(F)cc2)C3)s1 [Cpd B440] | 0.26 µM | – |
| O=C(NC1CCC(F)(F)CC1)N1CC2(CN(Cc3ncccc3F)C2)C1 [Cpd B441] | 0.253 µM | – |
| O=C(Cc1ccnc(Cl)c1)N1CC2(CN(Cc3ccc(F)cc3)C2)C1 [Cpd B442] | 0.2 µM | – |
| Cc1cccnc1CN1CC2(C1)CN(C(=O)NCc1ccc(F)cc1)C2 [Cpd B443] | 0.171 µM | – |
| Cn1cc(Cl)c(CN2CC3(C2)CN(C(=O)NCc2ccc(F)cc2)C3)n1 [Cpd B444] | 0.167 µM | – |
| Cc1csc(CN2CC3(C2)CN(C(=O)CC2CCC(F)(F)CC2)C3)n1 [Cpd B445] | 0.157 µM | – |
| Cn1cnc(CN2CC3(C2)CN(C(=O)OC2CCC(F)(F)CC2)C3)c1Cl [Cpd B446] | 0.15 µM | – |
| Cn1cnc(CN2CC3(C2)CN(C(=O)NCC2CCC(F)(F)CC2)C3)c1Cl [Cpd B447] | 0.148 µM | – |

| SMILES | EC50 (M17_3TAU(P301L) cells) | also measured |
| --- | --- | --- |
| O=C(OCC1CCC(F)(F)CC1)N1CC2(CN(Cc3c(F)cccc3C(F)(F)F)C2)C1 [Cpd B448] | 0.12 µM | – |
| Cc1cc(CN2CC3(C2)CN(C(=O)CC2CCC(F)(F)CC2)C3)n[nH]1 [Cpd B449] | 0.119 µM | – |
| Cc1nc(CN2CC3(C2)CN(C(=O)NC2CCC(F)(F)CC2)C3)cs1 [Cpd B450] | 0.116 µM | – |
| Cc1nc(CN2CC3(C2)CN(C(=O)CC2CCC(F)(F)CC2)C3)sc1C [Cpd B451] | 0.105 µM | – |
| Cc1nc(CN2CC3(C2)CN(C(=O)Nc2ccc(Cl)cc2)C3)cs1 [Cpd B452] | 0.0945 µM | – |
| O=C(NCC1CCC(F)(F)CC1)N1CC2(CN(Cc3ccc(F)cn3)C2)C1 [Cpd B453] | 0.0836 µM | – |
| O=C(NC1CCCCC1)N1CC2(CN(Cc3ccc(F)cc3)C2)C1 [Cpd B454] | 0.0766 µM | – |
| COc1cccc(CN2CC3(C2)CN(C(=O)CC2CCCC2)C3)c1 [Cpd B455] | 0.0745 µM | – |
| Cc1ncc(CN2CC3(C2)CN(C(=O)CC2CCC(F)(F)CC2)C3)s1 [Cpd B456] | 0.0739 µM | – |
| O=C(NC1CCC(F)(F)CC1)N1CC2(CN(Cc3ccc(Cl)cn3)C2)C1 [Cpd B457] | 0.0715 µM | – |
| Cn1cnc(CN2CC3(C2)CN(C(=O)CC2CCC(F)(F)CC2)C3)c1Cl [Cpd B458] | 0.0655 µM | – |
| O=C(NCC1CCC(F)(F)CC1)N1CC2(CN(Cc3c(F)cccc3C(F)(F)F)C2)C1 [Cpd B459] | 0.0648 µM | – |
| O=C(NC1CCC(F)(F)CC1)N1CC2(CN(Cc3ccc(C(F)(F)F)cc3)C2)C1 [Cpd B460] | 0.063 µM | – |
| Cc1c(CN2CC3(C2)CN(C(=O)CC2CCC(F)(F)CC2)C3)cnn1C [Cpd B461] | 0.0565 µM | – |
| Cn1ccc(CN2CC3(C2)CN(C(=O)CC2CCC(F)(F)CC2)C3)n1 [Cpd B462] | 0.0531 µM | – |
| COc1cccc(CN2CC3(C2)CN(C(=O)OCc2ccc(Cl)cc2)C3)c1 [Cpd B463] | 0.0417 µM | – |
| O=C(CC1CCC(F)(F)CC1)N1CC2(CN(Cc3ncccc3F)C2)C1 [Cpd B464] | 0.0401 µM | – |
| O=C(Nc1ccc(OC(F)F)cc1)N1CC2(CN(Cc3ccc(F)cc3)C2)C1 [Cpd B465] | 0.0381 µM | – |
| O=C(Nc1cccc(Cl)c1)N1CC2(CN(Cc3ccc(F)cc3)C2)C1 [Cpd B466] | 0.0186 µM | – |
